Experimental data: US20050208496A1, “Methods of testing for bronchial asthma or chronic obstructive pulmonary disease” (Genox Research, Inc., priority 2002, published 2005)

How the values were obtained:
[1] = test system: respiratory epithelial cells; experiment: Goblet cell differentiation of respiratory epithelial cells upon IL-13 stimulation (PAS and Alcian blue staining); type: cell-based, human
Experimental: After the cell count was determined, cells were plated at the cell density of 10^6 cells/cm^2 on a filter membrane with 0.45-μm pores, being attached to the bottom of a Millicell-HA Culture Plate Insert (Millipore Corp.). At the time of plating, Vitrogen gel (Vitrogen from Celtrix Pharmaceuticals, Inc. was used after gelation) was placed on the filter membrane as a growth-supporting material, and the epithelial cells were placed thereon. The Millicell inserts were placed in a 24-well plate (Falcon) containing a culture medium, which was a 1:1 mixture of Dulbecco's MEM and Ham F12 containing 2% Ultroser G and the antibiotics, penicillin, streptomycin, gentamycin, and amphotericin B. The cells were incubated overnight. Then, cells that had not adhered to the collagen gel were removed, and the remaining cells were cultured while the cell side was in contact with air (air interface) for approximately two weeks (See FIG. 1). The basic procedures of the AI method by which respiratory epithelial cells were cultured were the same as those described in the following reports:
As basically done in the AI method, Vitrogen gel was placed on a filter membrane, and epithelial cells were placed thereon. The IMM method is different from the AI method in the point that the IMM method comprises adding a medium to cover the epithelial cells. […]

mouse pendrin gene = experiment: Quantitative PCR of the mouse pendrin gene in the lung of the OVA antigen-exposed bronchial hypersensitivity model; type: in vivo; conditions: lung 24 hours after third antigen inhalation

Substance	differentiation into goblet cells (PAS and Alcian blue staining) ([1]; AI method, IL-13 50 ng/mL, after 14 days of incubation)	goblet cell differentiation ([1]; IMM method)	mouse pendrin gene expression level in the lung versus physiological saline-inhaled mice (quantitative PCR) (mouse pendrin gene)
IL-13: human IL-13 (Peprotech, Inc.) added to the medium at 50 ng/mL to stimulate respiratory epithelial cells	differentiated into goblet cells	not observed	–
ovalbumin [OVA antigen, ovalbumin antigen used for sensitization and inhalation to induce bronchial hypersensitivity in mice]	–	–	about 50 times
